For the experiment, the target named is T1, Human CCR3 (Homo sapiens, UniProt P51677).
T1 construct: The cloned CCR3 cDNA was constructed with pcDNA3 vector and transfected into a IC562 cell line; expressed in transfected cells
T1 sequence (P51677 1-355): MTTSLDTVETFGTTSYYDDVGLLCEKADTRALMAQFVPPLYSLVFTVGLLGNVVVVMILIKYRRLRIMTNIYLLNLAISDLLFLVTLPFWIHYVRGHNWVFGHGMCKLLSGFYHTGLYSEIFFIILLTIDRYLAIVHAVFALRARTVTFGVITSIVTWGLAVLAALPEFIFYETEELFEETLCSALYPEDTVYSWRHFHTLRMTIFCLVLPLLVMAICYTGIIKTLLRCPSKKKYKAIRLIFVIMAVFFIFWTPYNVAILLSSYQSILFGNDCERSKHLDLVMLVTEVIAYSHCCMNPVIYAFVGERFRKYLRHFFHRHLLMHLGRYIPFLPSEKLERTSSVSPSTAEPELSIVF
Kind of experiment: Receptor binding assay (RBA), [125I]-eotaxin. Conditions: human CCR3-transformed K562 cells, 0.1 nM [125I]-eotaxin; compounds of about 40 to 90% purity; read-out: Activity grade RBA (IC50 class). As for the experimental part:
[Determination of IC50 Values of Compounds in Receptor Binding Assay]
• Human CCR3-transformed K562 cells were used. The cloned CCR3 cDNA was constructed with pcDNA3 vector and transfected into a IC562 cell line. The human CCR3-transformed K562 cells were maintained in RPMI-1640 (Cat.#22400-089, Life Technologies) supplemented with 10% FCS (Cat.#A-1115-L, Hyclone), 55 μM 2-mercaptoethanol (Cat.#21985-023, Life Technologies), 1 mM sodium pyruvate (Cat.#11360-070, Life Technologies), 100 units/ml of penicillin G and 100 μg/ml of streptomycin (Cat.#15140-122, Life Technologies), and 0.4 mg/ml of Geneticin (Cat.#10131-035, Life Technologies)(hereinafter called “culture medium”). Before the receptor binding assay, cells were pretreated with 5 mM sodium butyrate (Cat.#193-01522, Wako)-containing the culture medium (2×10^5 cells/ml) for 20-24 hours to increase the expression of CCR3. (2) Receptor Binding Assay (RBA) • Butyrate-pretreated cells, suspended in binding buffer (25 mM HEPES pH 7.6, 1 mM CaCl2, 5 mM MgCl2, 0.5% BSA, 0.1% NaN3) at a cell density of 2×10^6 cells/ml, were added into 60 μl/well in the 96-well round bottom polypropylene plate (Cat.#3365, Costar). Compounds, diluted with the binding buffer (4-times higher concentration of the final concentration), were added into 30 μl/well in the polypropylene plate. [^125I]-labeled human eotaxin (Cat.#IM290, Amersham Pharmacia Biotech), diluted with the binding buffer at the concentration of 0.4 nM (final concentration; 0.1 nM), was added into 30 μl/well in the polypropylene plate. Total 120 μl/well of binding reaction mixture (60 μl/well of cell suspension, 30 μl/well of compound solution, and 30 μl/well of [^125I]-labeled eotaxin) were incubated in the polypropylene plate for 1 hour at room temperature after the incubation, 100 μl/well of the reaction mixture was transferred to a filtration plate (Cat.#MAFB-N0B, Millipore), and washed with the washing buffer (25 mM HEPES pH 7.6, 1 mM CaCl2, 5 mM MgCl2, 0.5% BSA, 0.1% NaN3, 0.5 M NaCl) twice. The 96-well filtration plate was pretreated with 100 μl/well of 0.5% polyethylenimine (Cat.#P-3143, Sigma) for 2-4 hours at room temperature and washed with the washing buffer twice before use. The non-specific binding was determined by parallel incubation in the presence of 500 nM of non-labeled eotaxin (Cat.#23209, Genzyme Techne). The radioactivities remained on the filter were measured by liquid scintillation counter (TopCount™, Packard) after an addition of 45 μl/well of scintillant (Microscint20, Cat.#6013621, Packard). The inhibition percent at each concentration of compound was calculated, and IC50 values were determined from the inhibition curve. [Determination of IC50 Values of Compounds in Calcium Mobilization Assay] (IC50 Ca2+) (1) Cell • Human CCR3-transformed K562 cells were used. The human CCR3-transformed K562 cells were maintained in RPMI-1640 supplemented with 10% FCS, 55 μM 2-mercaptoethanol (Cat.#21985-023, Life Technologies), 1 mM sodium pyruvate, 100 units/ml of penicillin G and 100 μg/ml of streptomycin and 0.4 mg/ml of Geneticin. Before the calcium mobilization assay, cells were pretreated with 5 mM sodium butyrate-containing the culture medium (2×10^5 cells/ml) for 20-24 hours to increase the expression of CCR3. (2) Calcium Mobilization Assay • Butyrate-pretreated cells were loaded with Fluo-3AM (Cat.#F-1242, Molecular Probes) in loading buffer (Hanks' solution Cat.#05906 Nissui, 20 mM HEPES pH 7.6, 0.1% BSA, 1 mM probenecid Cat.#P-8761 Sigma, 1 μM Fluo-3AM, 0.01% pluronic F-127 Cat.#P-6866 Molecular Probes) at a cell density of 1×10^7 cells/ml. Then, cells were washed with calcium assay buffer (Hanks' solution Cat.#05906 Nissui, 20 mM HEPES pH 7.6, 0.1% BSA, 1 mM Probenecid Cat.#P-8761 Sigma). The cell suspension (3.3×10^6 cells/ml) was added into 60 μl/well in the 96-well clear bottom black plate (Cat.#3904, Costar). […]

Structures are written as SMILES. Counter-ions that a name gives are not always drawn. A value given as a limit tells only on which side of the number the result lay.

On to `Cc1cc(C)cc(Oc2ccc([N+](=O)[O-])cc2S(=O)(=O)N2CCN(CCOCCO)CC2)c1` [Example 1-89], for which the IC50 (commonly the concentration that gives 50% inhibition) was less than 1000 nM.

Turning to `Cc1cc(C)cc(Oc2ccc(S(C)(=O)=O)cc2S(=O)(=O)N2CCNCC2)c1.Cl` [Example 1-35], the concentration for half-maximal inhibition (IC50) lay within 1000 to 10000 nM.

As for `Cc1cc(C)cc(Oc2ccc(C(F)(F)F)cc2S(=O)(=O)N2CCNCC2)c1.Cl` [Example 1-43], the 50% inhibitory concentration (IC50) is less than 1000 nM.

Turning to `N#Cc1ccccc1Oc1ccc([N+](=O)[O-])cc1S(=O)(=O)N1CCNCC1` [Example 1-29], the IC50 lay in the range of 1000 to 10000 nM. For `Cc1cc(C)cc(Oc2ccc([N+](=O)[O-])cc2S(=O)(=O)N2CC(C)NC(C)C2)c1` (stereo not drawn) [Example 1-92], the IC50 is less than 1000 nM. Then `Cl.O=[N+]([O-])c1ccc(Oc2cccc(Br)c2)c(S(=O)(=O)N2CCNCC2)c1` [Example 1-39], with less than 1000 nM. On to `Cl.O=[N+]([O-])c1ccc(Oc2cc(Cl)cc(Cl)c2F)c(S(=O)(=O)N2CCNCC2)c1` [Example 1-77], for which the IC50 is less than 1000 nM. Regarding `O=[N+]([O-])c1ccc(Oc2cccc(F)c2)c(S(=O)(=O)N2CCNCC2)c1` [Example 1-25], the IC50 is less than 1000 nM.

In the case of `Cc1cc(C)cc(Oc2ccncc2S(=O)(=O)N2CCNCC2)c1` [Example 25-1, 1-{[4-(3,5-dimethylphenoxy)-3-pyridinyl]sulfonyl}piperazine hydrochloride], the IC50 was 1000 to 10000 nM. The value for `O=C(O)C1CNCCN1S(=O)(=O)c1cc([N+](=O)[O-])ccc1Oc1cc(Cl)cc(Cl)c1` (stereo not drawn) [Example 1-87] was less than 1000 nM; that for `O=[N+]([O-])c1ccc(Oc2cc(Cl)ccc2Cl)c(S(=O)(=O)N2CCNCC2)c1` [Example 1-84] was less than 1000 nM; that for `Cc1ccc(C)c(Oc2ccc([N+](=O)[O-])cc2S(=O)(=O)N2CCNCC2)c1C.Cl` [Example 1-61] was 1000 to 10000 nM. On to `Cc1ccc(Cl)c(Oc2ccc([N+](=O)[O-])cc2S(=O)(=O)N2CCNCC2)c1` [Example 1-80], for which the IC50 was less than 1000 nM. The value for `Cc1cc(C)cc(Oc2cc(C)c([N+](=O)[O-])cc2S(=O)(=O)N2CCNCC2)c1.Cl` [Example 1-44] was 1000 to 10000 nM; that for `Cl.O=[N+]([O-])c1ccc(Oc2cc(Cl)cc(Cl)c2)c(S(=O)(=O)N2CCCNCC2)c1` [Example 1-91] was less than 1000 nM; that for `Cl.O=S(=O)(c1cc(F)ccc1Oc1cc(Cl)cc(Cl)c1)N1CCNCC1` [Example 1-51] was less than 1000 nM.

As to `Cc1cc(C)cc(Oc2ccc([N+](=O)[O-])cc2S(=O)(=O)N2CCNCC2)c1` [Example 1-2, 1-{[2-(3,5-dimethylphenoxy)-5-nitrophenyl]sulfonyl}piperazine hydrochloride], the IC50 was less than 1000 nM.

As for `Cc1cc(C)c(C)c(Oc2ccc([N+](=O)[O-])cc2S(=O)(=O)N2CCNCC2)c1.Cl` [Example 1-65], the 50% inhibitory concentration (IC50) was less than 1000 nM. Take `Cc1cc(C)cc(Sc2ccc([N+](=O)[O-])cc2S(=O)(=O)N2CCNCC2)c1` [Example 2-1, 1-({2-[(3,5-dimethylphenyl)-sulfanyl]-5-nitrophenyl}sulfonyl)piperazine hydrochloride]: the IC50 was less than 1000 nM.

Take `CN(C)C(=O)c1ccc(Oc2cc(Cl)cc(Cl)c2)c(S(=O)(=O)N2CCNCC2)c1` [Example 10-1, 4-(3,5-dichlorophenoxy)-N,N-dimethyl-3-(1-piperazinylsulfonyl)benzamide hydrochloride]: the IC50 lay in the range of 1000 to 10000 nM. As for `Cc1cccc(Oc2ccc([N+](=O)[O-])cc2S(=O)(=O)N2CCNCC2)c1C.Cl` [Example 1-62], the IC50 was less than 1000 nM. Then `Cc1cc(C)cc(Oc2ccc([N+](=O)[O-])cc2S(=O)(=O)N2CCN(C(=O)OC(C)(C)C)CC2)c1` [Example 1-1, tert-butyl 4-{[2-(3,5-dimethylphenoxy)-5-nitrophenyl]sulfonyl}-1-piperazinecarboxylate], with greater than 10000 nM. Consider `CC(=O)c1ccccc1Oc1ccc([N+](=O)[O-])cc1S(=O)(=O)N1CCNCC1.Cl` [Example 1-30], for which the IC50 was greater than 10000 nM. As to `Cl.O=[N+]([O-])c1ccc(Oc2cccc(C(F)(F)F)c2)c(S(=O)(=O)N2CCNCC2)c1` [Example 1-34], the IC50 was less than 1000 nM.

The values are drawn from US8242118B2, “Arylsulfonamide derivatives for use as CCR3 antagonists in the treatment of inflammatory and immunological disorders” (Axikin Pharmaceuticals Inc., priority 2001, dated 2012).
